Results reported in patent US20130165641A1, “6,11-BRIDGED BIARYL MACROLIDES” (Enanta Pharmaceuticals, Inc., priority 2007, published 2013).
≈ marks a conversion by molar mass, not a printed value.

Key:
H. influenzae = assay: MIC by micro-dilution method, H. influenzae isolates; assay type: cell-based, Haemophilus influenzae
Procedure: (§1) Susceptibility tests can be used to quantitatively measure the in vitro activity of an antimicrobial agent against a given bacterial isolate. Compounds are tested for in vitro antibacterial activity by a micro-dilution method. Minimal Inhibitory Concentration (MIC) is determined in 96 well microtiter plates utilizing the appropriate broth medium for the observed bacterial isolates. […] The diluted compounds (2 μl/well) are then transferred into sterile, uninoculated medium (0.2 mL) by use of a 96 fixed tip-pipetting station. The inoculum for each bacterial strain is standardized to approximately 5×10^5 CFU/mL by optical comparison to a 0.5 McFarland turbidity standard. The plates are inoculated with 10 μl/well of adjusted bacterial inoculum. The 96 well plates are covered and incubated at 35+/−2° C. for 24 hours in ambient air environment. Following incubation, plate wells are visually examined by Optical Density measurement for the presence of growth (turbidity). The lowest concentration of an antimicrobial agent at which no visible growth occurs is defined as the MIC.
(§2) All in vitro testing follows the guidelines described in the Approved Standards M7-A7 protocol, published by the Clinical Laboratory Standards Institute (CLSI).

MRSA = assay: MIC by micro-dilution method, MRSA isolates; assay type: cell-based, Staphylococcus aureus; conditions: compounds of Formula XVI; for MIC MRSA 7662: MRSA isolate 7662; for MIC MRSA 33591: MRSA isolate 33591
Procedure: as §1, §2

SMILES | MIC MRSA 7662 (MRSA) [µg/mL] | MIC MRSA 33591 (MRSA) [µg/mL] | MIC (H. influenzae; H. influenzae 33929) [µg/mL] | MIC (H. influenzae; H. influenzae 49247) [µg/mL]
CCC1OC(=O)C(C)C(=O)C(C)C(OC2OC(C)CC(N(C)C)C2O)C2(C)CC(C)C(=O)C(C)C(OCC(=NOCc3ccc(-c4nc(N)cs4)cn3)CO2)C1(C)O (centres unmarked) [Example 32] |  |  | 2 (≈ 2.4 µM) | 2 (≈ 2.4 µM)
CCC1OC(=O)C(C)(F)C(=O)C(C)C(OC2OC(C)CC(N(C)C)C2O)C2(C)CC(C)C(=O)C(C)C(OCC(=NOCc3ccc(-c4nc(N)cs4)cn3)CO2)C1(C)O (centres unmarked) [Example 33] |  |  | 4 (≈ 4.71 µM) | 2 (≈ 2.35 µM)
CCC1OC(=O)C(C)C(=O)C(C)C(OC2OC(C)CC(N(C)C)C2O)C2(C)CC(C)C(=O)C(C)C(OCC(=NOCc3cnc(-c4cccc(N)n4)s3)CO2)C1(C)O (centres unmarked) [Example 34] |  |  | 2 (≈ 2.4 µM) | 2 (≈ 2.4 µM)
CCC1OC(=O)C(C)C(=O)C(C)C(OC2OC(C)CC(N(C)C)C2O)C2(C)CC(C)C(=O)C(C)C(OCC(=NOCc3ccc(-c4nsc(N)n4)cn3)CO2)C1(C)O (centres unmarked) [Example 35] |  |  | 2 (≈ 2.4 µM) | 2 (≈ 2.4 µM)
CCC1OC(=O)C(C)C(=O)C(C)C(OC2OC(C)CC(N(C)C)C2O)C2(C)CC(C)C(=O)C(C)C(OCC(=NOCc3ncc(-c4cccc(N)n4)s3)CO2)C1(C)O (centres unmarked) [Example 36] |  |  | 2 (≈ 2.4 µM) | 2 (≈ 2.4 µM)
CCC1OC(=O)C(C)C(=O)C(C)C(OC2OC(C)CC(N(C)C)C2O)C2(C)CC(C)C(=NC(C)=O)C(C)C(OCC(=NOCc3cnc(-c4cccc(N)n4)s3)CO2)C1(C)O (centres unmarked) [Example 37] |  |  | 4 (≈ 4.58 µM) | 2 (≈ 2.29 µM)
CCC1OC(=O)C(C)(F)C(=O)C(C)C(OC2OC(C)CC(N(C)C)C2O)C2(C)CC(C)C(=O)C(C)C(OCC(=NOCc3ccc(-c4nc(N)no4)cc3)CO2)C1(C)O (centres unmarked) [Example 38] |  |  | 2 (≈ 2.4 µM) | 4 (≈ 4.8 µM)
CCC1OC(=O)C(C)C(=O)C(C)C(OC2OC(C)CC(N(C)C)C2O)C2(C)CC(C)C(=O)C(C)C(OCC(=NOCc3coc(-c4cccc(N)n4)n3)CO2)C1(C)O (centres unmarked) [Example 39] |  |  | 1 (≈ 1.23 µM) | 1 (≈ 1.23 µM)
CCC1OC(=O)C(C)C(=O)C(C)C(OC2OC(C)CC(N(C)C)C2O)C2(C)CC(C)C(=NC(C)=O)C(C)C(OCC(=NOCc3coc(-c4cccc(N)n4)n3)CO2)C1(C)O (centres unmarked) [Example 40] |  |  | 2 (≈ 2.33 µM) | 2 (≈ 2.33 µM)
CCC1OC(=O)C(C)C(=O)C(C)C(OC2OC(C)CC(N(C)C)C2O)C2(C)CC(C)C(=O)C(C)C(OCC(=NOCc3ccc(-c4csc(N)n4)cn3)CO2)C1(C)O (centres unmarked) [Example 41] |  |  | 2 (≈ 2.4 µM) | 1 (≈ 1.2 µM)
CCC1OC(=O)C(C)C(=O)C(C)C(OC2OC(C)CC(N(C)C)C2O)C2(C)CC(C)C(=O)C(C)C(OCC(=NOCc3ccc(-c4nc(N)no4)cc3)CO2)C1(C)O (centres unmarked) [Example 42] |  |  | 2 (≈ 2.45 µM) | 1 (≈ 1.23 µM)
CCC1OC(=O)C(C)(F)C(=O)C(C)C(OC2OC(C)CC(N(C)C)C2O)C2(C)CC(C)C(=O)C(C)C(OCC(=NOCc3ccc(-c4nc(N)no4)cn3)CO2)C1(C)O (centres unmarked) [Example 43] |  |  | 2 (≈ 2.4 µM) | 2 (≈ 2.4 µM)
CCC1OC(=O)C(C)C(=O)C(C)C(OC2OC(C)CC(N(C)C)C2O)C2(C)CC(C)C(=O)C(C)C(OCC(=NOCc3ccc(-c4nc(N)ns4)cc3)CO2)C1(C)O (centres unmarked) [Example 44] |  |  | 2 (≈ 2.4 µM) | 1 (≈ 1.2 µM)
CCC1OC(=O)C(C)C(=O)C(C)C(OC2OC(C)CC(N(C)C)C2O)C2(C)CC(C)C(=O)C(C)C(OCC(=NOCc3ccc(-c4nc(N)no4)cn3)CO2)C1(C)O (centres unmarked) [Example 45] |  |  | 2 (≈ 2.45 µM) | 1 (≈ 1.22 µM)
CCC(=O)N=C1[C@H](C)C[C@@]2(C)OC/C(=N/OCc3ccc(-c4nc(N)cs4)cc3)CO[C@H]([C@H]1C)[C@](C)(O)[C@@H](CC)OC(=O)[C@H](C)C(=O)[C@H](C)[C@H]2O[C@@H]1O[C@H](C)C[C@H](N(C)C)[C@H]1O [Example 121] | 8 (≈ 9.03 µM) | 8 (≈ 9.03 µM) |  | 
CCC(=O)N=C1[C@H](C)C[C@@]2(C)OC/C(=N/OCc3ccc(-c4csc(N)n4)cc3)CO[C@H]([C@H]1C)[C@](C)(O)[C@@H](CC)OC(=O)[C@@](C)(F)C(=O)[C@H](C)[C@H]2O[C@@H]1O[C@H](C)C[C@H](N(C)C)[C@H]1O [Example 122] | 4.00 (≈ 4.42 µM) | 4.00 (≈ 4.42 µM) |  | 

Continued, in another order:

MIC MRSA 7662 (MRSA) [µg/mL] | MIC MRSA 33591 (MRSA) [µg/mL] | SMILES | MIC (H. influenzae; H. influenzae 33929) [µg/mL] | MIC (H. influenzae; H. influenzae 49247) [µg/mL]
4 (≈ 4.41 µM) | 4 (≈ 4.41 µM) | CCC(=O)N=C1[C@H](C)C[C@@]2(C)OC/C(=N/OCc3ccc(-c4nsc(N)n4)cn3)CO[C@H]([C@H]1C)[C@](C)(O)[C@@H](CC)OC(=O)[C@@](C)(F)C(=O)[C@H](C)[C@H]2O[C@@H]1O[C@H](C)C[C@H](N(C)C)[C@H]1O [Example 123] |  | 
4.00 (≈ 4.49 µM) | 8.00 (≈ 8.99 µM) | CC[C@H]1OC(=O)[C@@](C)(F)C(=O)[C@H](C)[C@@H](O[C@@H]2O[C@H](C)C[C@H](N(C)C)[C@H]2O)[C@@]2(C)C[C@@H](C)C(=NC(=O)OC)[C@H](C)[C@@H](OC/C(=N\OCc3ccc(-n4ccc(N)n4)cn3)CO2)[C@]1(C)O [Example 124] |  | 
4 (≈ 4.42 µM) | 8 (≈ 8.84 µM) | CCC(=O)N=C1[C@H](C)C[C@@]2(C)OC/C(=N/OCc3ccc(-c4csc(N)n4)cn3)CO[C@H]([C@H]1C)[C@](C)(O)[C@@H](CC)OC(=O)[C@@](C)(F)C(=O)[C@H](C)[C@H]2O[C@@H]1O[C@H](C)C[C@H](N(C)C)[C@H]1O [Example 125] |  | 
4 (≈ 4.57 µM) | 8 (≈ 9.14 µM) | CC[C@H]1OC(=O)[C@@](C)(F)C(=O)[C@H](C)[C@@H](O[C@@H]2O[C@H](C)C[C@H](N(C)C)[C@H]2O)[C@@]2(C)C[C@@H](C)C(=NC(C)=O)[C@H](C)[C@@H](OC/C(=N\OCc3coc(-c4cccc(N)n4)n3)CO2)[C@]1(C)O [Example 126] |  | 
2.00 (≈ 2.21 µM) | 4.00 (≈ 4.42 µM) | CCC(=O)N=C1[C@H](C)C[C@@]2(C)OC/C(=N/OCc3ccc(-c4nsc(N)n4)cc3)CO[C@H]([C@H]1C)[C@](C)(O)[C@@H](CC)OC(=O)[C@@](C)(F)C(=O)[C@H](C)[C@H]2O[C@@H]1O[C@H](C)C[C@H](N(C)C)[C@H]1O [Example 127] |  | 
4.00 (≈ 4.42 µM) | 8.00 (≈ 8.84 µM) | CCC(=O)N=C1[C@H](C)C[C@@]2(C)OC/C(=N/OCc3ccc(-c4nc(N)cs4)nc3)CO[C@H]([C@H]1C)[C@](C)(O)[C@@H](CC)OC(=O)[C@@](C)(F)C(=O)[C@H](C)[C@H]2O[C@@H]1O[C@H](C)C[C@H](N(C)C)[C@H]1O [Example 128] |  | 
4.00 (≈ 4.41 µM) | 8.00 (≈ 8.83 µM) | CCC(=O)N=C1[C@H](C)C[C@@]2(C)OC/C(=N/OCc3ccc(-c4nsc(N)n4)nc3)CO[C@H]([C@H]1C)[C@](C)(O)[C@@H](CC)OC(=O)[C@@](C)(F)C(=O)[C@H](C)[C@H]2O[C@@H]1O[C@H](C)C[C@H](N(C)C)[C@H]1O [Example 129] |  | 
2.00 (≈ 2.17 µM) | 4.00 (≈ 4.35 µM) | CC[C@H]1OC(=O)[C@@](C)(F)C(=O)[C@H](C)[C@@H](O[C@@H]2O[C@H](C)C[C@H](N(C)C)[C@H]2O)[C@@]2(C)C[C@@H](C)C(=NC(=O)C(C)C)[C@H](C)[C@@H](OC/C(=N\OCc3ccc(-c4nsc(N)n4)cn3)CO2)[C@]1(C)O [Example 130] |  | 
4.00 (≈ 4.41 µM) | 8.00 (≈ 8.83 µM) | CCC(=O)N=C1[C@H](C)C[C@@]2(C)OC/C(=N/OCc3cnc(-c4nccc(N)n4)s3)CO[C@H]([C@H]1C)[C@](C)(O)[C@@H](CC)OC(=O)[C@@](C)(F)C(=O)[C@H](C)[C@H]2O[C@@H]1O[C@H](C)C[C@H](N(C)C)[C@H]1O [Example 131] |  | 
2.00 (≈ 2.21 µM) | 4.00 (≈ 4.41 µM) | CCC(=O)N=C1[C@H](C)C[C@@]2(C)OC/C(=N/OCc3ncc(-c4nc(N)cs4)cn3)CO[C@H]([C@H]1C)[C@](C)(O)[C@@H](CC)OC(=O)[C@@](C)(F)C(=O)[C@H](C)[C@H]2O[C@@H]1O[C@H](C)C[C@H](N(C)C)[C@H]1O [Example 132] |  | 
2.00 (≈ 2.21 µM) | 4.00 (≈ 4.41 µM) | CCC(=O)N=C1[C@H](C)C[C@@]2(C)OC/C(=N/OCc3cnc(-c4nc(N)cs4)cn3)CO[C@H]([C@H]1C)[C@](C)(O)[C@@H](CC)OC(=O)[C@@](C)(F)C(=O)[C@H](C)[C@H]2O[C@@H]1O[C@H](C)C[C@H](N(C)C)[C@H]1O [Example 133] |  | 
4.00 (≈ 4.5 µM) | 8.00 (≈ 9 µM) | CCC(=O)N=C1[C@H](C)C[C@@]2(C)OC/C(=N/OCc3ncc(-c4cccc(N)n4)o3)CO[C@H]([C@H]1C)[C@](C)(O)[C@@H](CC)OC(=O)[C@@](C)(F)C(=O)[C@H](C)[C@H]2O[C@@H]1O[C@H](C)C[C@H](N(C)C)[C@H]1O [Example 134] |  | 
2.00 (≈ 2.2 µM) | 2.00 (≈ 2.2 µM) | [2H]C([2H])([2H])C([2H])([2H])C(=O)N=C1[C@H](C)C[C@@]2(C)OC/C(=N/OCc3ccc(-c4nc(N)cs4)cn3)CO[C@H]([C@H]1C)[C@](C)(O)[C@@H](CC)OC(=O)[C@@](C)(F)C(=O)[C@H](C)[C@H]2O[C@@H]1O[C@H](C)C[C@H](N(C)C)[C@H]1O [Example 135] |  | 
2.00 (≈ 2.24 µM) | 2.00 (≈ 2.24 µM) | CC[C@H]1OC(=O)[C@@](C)(F)C(=O)[C@H](C)[C@@H](O[C@@H]2O[C@H](C)C[C@H](N(C)C)[C@H]2O)[C@@]2(C)C[C@@H](C)C(=NC(C)=O)[C@H](C)[C@@H](OC/C(=N\OCc3csc(-c4cccc(N)n4)n3)CO2)[C@]1(C)O [Example 136] |  | 
1.00 (≈ 1.09 µM) | 2.00 (≈ 2.18 µM) | CC[C@H]1OC(=O)[C@@](C)(F)C(=O)[C@H](C)[C@@H](O[C@@H]2O[C@H](C)C[C@H](N(C)C)[C@H]2O)[C@@]2(C)C[C@@H](C)C(=NC(=O)C(C)C)[C@H](C)[C@@H](OC/C(=N\OCc3csc(-c4cccc(N)n4)n3)CO2)[C@]1(C)O [Example 137] |  | 
